Read-outs that look alike come from different tables or passages of the source.

This note sets out measurements from patent US10792263B2, “Method of treating an individual having a microbial infection” (Sun Yat-sen University, priority 2012, dated 2020).

Assay [1] has as its system E. coli clinical isolate Y17. The settings on record: mice, 6 times, blood at 48 hours. On the procedure:
(§1) A total of 15 6-week-old mice (purchased from the Laboratory Animals Center of Sun Yat-sen University) are randomly divided into three groups: saline control group and two treatment groups are administered with 3.25 or 6.5 mg glycine/mouse. The compound is intravenously administered at 3.25 or 6.5 mg glycine/injection/mouse every 12 hours and 6 times in total. Mice are intravenously injected 1×10^6 E. coli K12 BW25113 or E. coli clinical isolate Y17 at 12 hours after the last administration of glycine. Blood is withdrawn from mouse tail vein at 48 hours. The clearance of bacteria is determined by plate counting.

For assay [2], the system named is E. coli K12 BW25113. To be noted: mice, 6 times, blood at 48 hours. As to the method:
as §1

In assay [3] the test system is E. coli K12 BW25113, E. coli clinical strain Y17, Vibro alginolyticus, Vibro parahaemolyticus, Pseudomonas aeruginosa and Staphylococcus aureus. The settings on record: 100 μL serum/plasma of different animals plus 100 mM glycine, 4 hour. As to the method: (§2) Sample preparation: Single colonies of the parent strain E. coli K12 BW25113 are picked from Luria-Bertani (LB) agar plate, inoculated into 5 mL LB medium and incubated with shaking at 200 rpm, 37° C. for 16 hours. Cultures are then diluted 1:100 (v/v) in 200 mL fresh LB medium and grow to an OD600 of 1.0 at 37° C. with shaking. Cells are collected by centrifugation at 8000 rpm for 10 minutes at 4° C. and washed with 0.85% saline once.
A variety of bacteria (E. coli K12 BW25113, E. coli clinical strain Y17, Vibro alginolyticus, Vibro parahaemolyticus, Pseudomonas aeruginosa and Staphylococcus aureus) are cultured as described in Example 1.1. Aliquots of 3 mL bacteria are collected with OD600 of 1.0. Then, 100 μL serum/plasma from different animals or 100 μL serum/plasma of different animals plus 100 mM glycine are added and 100 mM glycine alone is used a control. Cells are cultured for 4 hour at 37° C. with shaking at 200 rpm. Bacteria are resuspended with 1 mL of saline. Absorbance is measured at 600 nm.

Assay [4] has as its system E. coli K12 BW25113. The settings on record: for increase of bactericidal effect, serum plus glycine versus serum: 100 μL human serum plus 100 mM glycine. As to the method:
as §2
To understand whether glycine enhances the bactericidal effect of serum, experiments are carried out in 3 scenarios: the same volume of human serum mixed with different concentrations of glycine, different volumes of human serum mixed with the same concentration of glycine, and these mixtures are treated for different incubation periods.
Bacterial cells are prepared according to Example 1.1. Glycine is added to a final concentration of 0, 5, 10, 30, 50 and 100 mM and the mixtures are cultured for 1 hour at 37° C. with shaking at 200 rpm. Then 100 μL of human serum or saline are added as test and control groups, respectively. Bacteria are cultured for 2 hours and collected by centrifugation. Cells are resuspended with 1 mL of saline. Live bacterial cells are counted on LB agar plate. Survival rate is calculated as follows: number of live bacteria cells after treatment with different concentrations of glycine supplementation/number of live bacteria cells after treatment with saline×100%.
Bacterial samples are prepared and added with 100 mM glycine and cultured for 1 hour at 37° C. with shaking at 200 rpm. Then 0, 20, 40, 60, 80 or 100 μL human serum is added and cultured for 2 hours at 37° C. with shaking at 200 rpm. The controls are not mixed with glycine but only with different volumes of human serum. Bacteria are collected by centrifugation and resuspended with 1 mL of saline for spot-plate counting. The survival rate is calculated as follows: the number of live bacteria cells after treatment with glycine plus different volumes of human serum/the number of live cells after treatment with only human serum×100%.
The prepared bacterial samples are divided into 4 groups and treated separately as follows: with 100 mM glycine, 100 μL human serum, 100 μL human serum plus 100 mM glycine or saline alone as control. The mixtures are cultured for 0.5, 1, 2, 3, and 4 hours at 37° C. with shaking at 200 rpm. Bacteria are collected by centrifugation and resuspended in 1 mL saline. Bacteria are counted using LB agar plates. The survival rate is calculated as follows: the number of live bacteria after treatment with serum and/or glycine in different times/the number of live bacteria in the saline control group×100%.

The test system of assay [5] is E. coli K12 BW25113, E. coli clinical strain Y17, beta-hemolytic Streptococcus, Vibro alginolyticus, Vibro parahaemolyticus, Pseudomonas aeruginosa and …. The settings on record: 125-175 μL human serum plus 100-150 mM glycine, 4 hours. As to the method:
as §2

Another assay has as its system E. coli. The experiment in a line: Human serum bactericidal assay with threonine, OD600 survival rate. Format: cell-based, Escherichia coli. To be noted: 2 hours. As to the method:
The prepared bacterial cells are divided to four groups. […] Absorbance is measured at 600 nm Survival rate is calculated as follows: the OD in groups after treatment with serum, threonine or serum plus threonine/the OD in the control group treated with saline×100%. […] Certain bactericidal effect is detected in the group with serum alone. Compared with the group with serum alone, the group with serum plus threonine has a significant 1.5-fold increase of bactericidal effect.

[6] abbreviates: 3.25 mg glycine/injection i.v. every 12 hours.
The mark [7] stands for this setting: 6.5 mg glycine/injection i.v. every 12 hours.

Consider `NCC(=O)O` [glycine], for which the Clearance rate is on record as 32.95% in assay [1] (setting [6]), 52.53% in assay [1] (setting [7]), 89.32% in the assay on E. coli K12 BW25113 [2] (setting [6]) and 96.85% in the assay on E. coli K12 BW25113 [2] (setting [7]). In assay [3], the “increase of bactericidal effect of animal serum/plasma, maximum” value is recorded as approximately 10 fold. The “increase of bactericidal effect of animal serum/plasma, minimum” value in assay [3] is recorded as not below 1.5 fold. In addition, the “increase of the serum bactericidal effect” value in the assay with E. coli K12 BW25113 [4] (5 mM glycine, 1 h preincubation, then 100 μL human serum for 2 hours, 37° C.) was determined as 1.36 fold. Moreover, the “elevation of serum bactericidal effect, serum volume series” value in the assay with E. coli K12 BW25113 [4] (100 mM glycine plus 100 μL human serum, 2 hours, versus human serum only) is 86 fold. Further, the “bactericidal effect of glycine alone” value in the assay with E. coli K12 BW25113 [4] (100 mM glycine without serum, 0.5 to 4 hours) is listed as “no bactericidal effect”. Moreover, the “increase of the serum bactericidal effect (highest effect)” value in the assay on E. coli K12 BW25113 [4] (100 mM glycine, 1 h preincubation, then 100 μL human serum for 2 hours, 37° C.) is listed as approximately 86 fold. Also, the figures for the “increase of bactericidal effect, serum plus glycine versus serum” value with E. coli K12 BW25113 [4] (after 0.5 hours), in the assay with E. coli K12 BW25113 [4] (after 1 hour) and in the assay with E. coli K12 BW25113 [4] (after 4 hours) were 2 fold, 77 fold and 120 fold, respectively. Moreover, the “increase of serum bactericidal effect, lower bound over all bacteria tested” value in assay [5] is “more than 1 fold”. For the same compound, the “increase of serum bactericidal effect, maximum over all bacteria tested” value in assay [5] is “up to 4.13 fold”.

As for `C[C@@H](O)[C@H](N)C(=O)O` [threonine], the “bactericidal effect of threonine alone” value in the assay with E. coli (100 mM threonine without serum) is listed as “no bactericidal effect”. Besides, the “increase of bactericidal effect, serum plus threonine versus serum alone” value in the assay on E. coli (100 μL human serum plus 100 mM threonine) is given as 1.5 fold.
